# Patent publication US10988459B2 (priority 2015, dated 2021)
# Biological target: human RIP1 kinase domain (2-375) (Homo sapiens (Human), UniProt Q13546)
# Experiment: biochemical
# Assay type: biochemical
# Conditions: Table 1; apparent Ki (Morrison tight-binding fit); 50 nM RIP1 kinase domain, 50 uM ATP, 2 hours incubation; read-out: RIP1 Ki
# Summary of the method: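 50 nM purified kinase domain from baculovirus-infected insect cells, incubated 2 h with compound in 50 mM Hepes pH 7.5, 30 mM MgCl2, 1 mM DTT, 50 uM ATP, 0.002% Brij-35, 0.5% DMSO. ADP formation read by Transcreener FP at 633 nm excitation. Ki^app fitted with the Morrison tight-binding equation.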
# Sequence of human RIP1 kinase domain (2-375) (Q13546 2-375): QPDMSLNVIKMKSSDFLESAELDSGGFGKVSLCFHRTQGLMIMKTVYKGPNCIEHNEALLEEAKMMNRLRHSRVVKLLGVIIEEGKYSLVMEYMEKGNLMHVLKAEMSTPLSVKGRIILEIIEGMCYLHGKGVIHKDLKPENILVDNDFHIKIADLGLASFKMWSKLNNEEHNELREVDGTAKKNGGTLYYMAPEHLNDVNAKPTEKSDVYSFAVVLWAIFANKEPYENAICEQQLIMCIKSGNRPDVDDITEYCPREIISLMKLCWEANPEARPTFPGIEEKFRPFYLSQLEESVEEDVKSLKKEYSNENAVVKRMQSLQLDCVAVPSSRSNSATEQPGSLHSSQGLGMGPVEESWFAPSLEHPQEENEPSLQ
row,Compound,Ki [nM]
1,"Cc1cc2n(n1)CCC(NC(=O)c1ncn(Cc3ccccc3)n1)C(=O)N2C (centres unmarked) [Example 72, 1-benzyl-N-(2,4-dimethyl-5-oxo-5,6,7,8-tetrahydro-4H-pyrazolo[1,5-a][1,3]diazepin-6-yl)-1H-1,2,4-triazole-3-carboxamide]",68

# Same assay, conditions: Table 5; apparent Ki (Morrison tight-binding fit); 50 nM RIP1 kinase domain, 50 uM ATP, 2 hours incubation; read-out: Ki
row,Ki [nM],Compound
1,159,"CN1C(=O)[C@@H](NC(=O)c2ncn(Cc3ccccc3)n2)CCn2nc(CCN3CC4CC3CO4)cc21 (stereo partly drawn) [Example 761, 1-benzyl-N-[(6S)-4-methyl-2-[2-(2-oxa-5-azabicyclo[2.2.1]heptan-5-yl)ethyl]-5-oxo-7,8-dihydro-6H-pyrazolo[1,5-a][1,3]diazepin-6-yl]-1,2,4-triazole-3-carboxamide]"
2,618,"Cc1cc2n(n1)CC[C@H](NC(=O)c1cc3c(Br)cccc3cn1)C(=O)N2C (racemic) [Example 701, 5-bromo-N-[rac-(6S)-2,4-dimethyl-5-oxo-7,8-dihydro-6H-pyrazolo[1,5-a][1,3]diazepin-6-yl]isoquinoline-3-carboxamide]"
3,233,CN1C(=O)[C@@H](NC(=O)c2ncn(Cc3ccccc3)n2)CCn2nc(CCN3CC(F)C3)cc21 [Example 769]
4,42,"C[C@]1(C(F)(F)F)OCc2cnc(C(=O)N[C@H]3CCc4cc(F)cc(F)c4NC3=O)nc21 [Example 747, (7S)-7-methyl-N-[(3S)-7,9-difluoro-2-oxo-1,3,4,5-tetrahydro-1-benzazepin-3-yl]-7-(trifluoromethyl)-5H-furo[3,4-d]pyrimidine-2-carboxamide]"

# Same assay, conditions: human RIP1 kinase domain (2-375), 50 uM ATP, 2 hours incubation, Transcreener ADP assay; read-out: RIP1 Ki
row,Compound,Ki [nM]
1,"CN1C(=O)[C@@H](NC(=O)c2nnc3n2CC(C(F)(F)C(F)(F)F)CC3)COc2ccccc21 (stereo partly drawn) [Example 116, N—((S)-5-methyl-4-oxo-2,3,4,5-tetrahydrobenzo[b][1,4]oxazepin-3-yl)-6-(perfluoroethyl)-5,6,7,8-tetrahydro-[1,2,4]triazolo[4,3-a]pyridine-3-carboxamide]",371
2,"CC(C)n1ncc2c1OC[C@H](NC(=O)c1cn(Cc3ccc(F)c(F)c3)cn1)C(=O)N2C [Example 180, (S)-1-(3,4-difluorobenzyl)-N-(1-isopropyl-4-methyl-5-oxo-4,5,6,7-tetrahydro-1H-pyrazolo[3,4-b][1,4]oxazepin-6-yl)-1H-imidazole-4-carboxamide]",8500
3,"CN1C(=O)[C@@H](NC(=O)c2n[nH]c3c2CC(CC(F)(F)F)OC3)COc2ccccc21 (stereo partly drawn) [Example 210, N—((S)-5-methyl-4-oxo-2,3,4,5-tetrahydrobenzo[b][1,4]oxazepin-3-yl)-5-(2,2,2-trifluoroethyl)-1,4,5,7-tetrahydropyrano[3,4-c]pyrazole-3-carboxamide]",193

# Other lines, results leading:
row,Ki [nM],Compound
1,20,"Cc1cnn2c1N(C)C(=O)[C@@H](NC(=O)c1ncn(Cc3ccccc3)n1)CC2 [Example 166, (S)-1-benzyl-N-(3,4-dimethyl-5-oxo-5,6,7,8-tetrahydro-4H-pyrazolo[1,5-a][1,3]diazepin-6-yl)-1H-1,2,4-triazole-3-carboxamide]"
2,38.2,"CN1C(=O)[C@@H](NC(=O)c2ncn(Cc3ccccc3)n2)CCCn2nccc21 [Example 155, (S)-1-benzyl-N-(4-methyl-5-oxo-4,5,6,7,8,9-hexahydropyrazolo[1,5-a][1,3]diazocin-6-yl)-1H-1,2,4-triazole-3-carboxamide]"

# Same assay, conditions: human RIP1 kinase domain (2-375), Transcreener ADP assay, 50 uM ATP, 2 hours incubation; read-out: RIP1 Ki
row,Compound,Ki [nM]
1,"CC[C@@]1(C)OCc2cc(C(=O)NC3CCn4nc(-c5ccccc5)cc4N(C)C3=O)ncc21 (stereo partly drawn) [Example 264, (3R)-3-ethyl-3-methyl-N-(4-methyl-5-oxo-2-phenyl-5,6,7,8-tetrahydro-4H-pyrazolo[1,5-a][1,3]diazepin-6-yl)-1,3-dihydrofuro[3,4-c]pyridine-6-carboxamide]",232
2,"CC[C@@]1(C)OCc2cnc(C(=O)N[C@H]3CCn4nc([C@@H]5CC5(F)F)cc4N(C)C3=O)cc21 [Example 325, (R)—N—((S)-2-((S)-2,2-difluorocyclopropyl)-4-methyl-5-oxo-5,6,7,8-tetrahydro-4H-pyrazolo[1,5-a][1,3]diazepin-6-yl)-1-ethyl-1-methyl-1,3-dihydrofuro[3,4-c]pyridine-6-carboxamide]",3340

# The next lines start with the values.
row,Ki [nM],Compound
1,25.3,"CN1C(=O)[C@H](NC(=O)c2ncn(Cc3ccc(F)cc3)n2)CCn2nc([C@H]3CC3(F)F)cc21 [Example 318, N—((R)-2-((R)-2,2-difluorocyclopropyl)-4-methyl-5-oxo-5,6,7,8-tetrahydro-4H-pyrazolo[1,5-a][1,3]diazepin-6-yl)-1-(4-fluorobenzyl)-1H-1,2,4-triazole-3-carboxamide]"
2,46.7,"Cc1nn2c(c1C)N(C)C(=O)[C@@H](NC(=O)c1ncn(Cc3ccc(F)c(F)c3)n1)CC2 [Example 273, (S)-1-(3,4-difluorobenzyl)-N-(2,3,4-trimethyl-5-oxo-5,6,7,8-tetrahydro-4H-pyrazolo[1,5-a][1,3]diazepin-6-yl)-1H-1,2,4-triazole-3-carboxamide]"

# Same assay, conditions: tight-binding apparent inhibition constant; human RIP1 kinase domain (2-375) 50 nM, 50 uM ATP, 2 hours; read-out: Ki
row,Compound,Ki [nM]
1,"CN1C(=O)[C@@H](NC(=O)c2nc3n(n2)[C@H](c2ccccc2)CC3)CCn2nccc21 (single isomer, unassigned) [Example 363]",21.2
2,"CN1C(=O)[C@@H](NC(=O)c2nc3n(n2)[C@H](c2ccccc2)CCC3)CCn2nccc21 (single isomer, unassigned) [Example 384]",2100
3,"CN1C(=O)[C@@H](NC(=O)c2nc3n(n2)CCO[C@@H]3c2ccccc2F)COc2ccccc21 [Example 629, (8R)-8-(2-fluorophenyl)-N-[(3S)-5-methyl-4-oxo-2,3-dihydro-1,5-benzoxazepin-3-yl]-6,8-dihydro-5H-[1,2,4]triazolo[5,1-c][1,4]oxazine-2-carboxamide]",14
4,"Cc1cc2n(n1)CC[C@H](NC(=O)c1cc3c(cn1)COC31CCCOC1)C(=O)N2C (stereo partly drawn) [Example 545, N-[(6S)-2,4-dimethyl-5-oxo-7,8-dihydro-6H-pyrazolo[1,5-a][1,3]diazepin-6-yl]spiro[3H-furo[3,4-c]pyridine-1,3′-tetrahydropyran]-6-carboxamide]",2100
5,"CC[C@@H]1CCc2nc(C(=O)N[C@H]3COc4ccccc4N(C)C3=O)nn21 (single isomer, unassigned) [Example 359]",303
6,"CN1C(=O)[C@@H](NC(=O)c2nc3n(n2)CCC32CCOC2)COc2ccccc21 (stereo partly drawn) [Example 645, N-[(3S)-5-methyl-4-oxo-2,3-dihydro-1,5-benzoxazepin-3-yl]spiro[5,6-dihydropyrrolo[1,2-b][1,2,4]triazole-7,3′-tetrahydrofuran]-2-carboxamide]",1200
7,CN1C(=O)[C@@H](NC(=O)c2ncc3c(n2)C2(CCCC2)OC3)COc2ccccc21 [Example 482],5.7
8,"Cc1cc(F)c2c(c1)OC[C@H](NC(=O)c1nc3n(n1)[C@@H](C(F)(F)F)CCC3)C(=O)N2 (single isomer, unassigned) [Example 427]",210
9,"CN1C(=O)[C@@H](NC(=O)c2nc3cccc(-c4ccccc4)c3s2)CCn2nccc21 [Example 392, (S)—N-(4-methyl-5-oxo-5,6,7,8-tetrahydro-4H-pyrazolo[1,5-a][1,3]diazepin-6-yl)-7-phenylbenzo[d]thiazole-2-carboxamide]",96.3
10,"CC(C)c1cccc2nc(C(=O)N[C@H]3COc4cc(F)cc(F)c4NC3=O)nn12 [Example 424, (S)—N-(6,8-difluoro-4-oxo-2,3,4,5-tetrahydrobenzo[b][1,4]oxazepin-3-yl)-5-isopropyl-[1,2,4]triazolo[1,5-a]pyridine-2-carboxamide]",3
11,"O=C(N[C@H]1CCc2cc(F)cc(F)c2NC1=O)c1nc2n(n1)[C@H](C(F)(F)F)CC2 [Example 357, (5S)—N-[(3S)-7,9-difluoro-2-oxo-1,3,4,5-tetrahydro-1-benzazepin-3-yl]-5-(trifluoromethyl)-6,7-dihydro-5H-pyrrolo[1,2-b][1,2,4]triazole-2-carboxamide]",46.1

# The next lines start with the values.
row,Ki [nM],Compound
1,790,"CN1C(=O)[C@@H](NC(=O)c2nc3n(n2)[C@H](c2ccccc2)CC3)CCn2nccc21 (single isomer, unassigned) [Example 614]"
2,1300,"Cc1cc2n(n1)CC[C@H](NC(=O)c1ncn(CC3CCCO3)n1)C(=O)N2C (stereo partly drawn) [Example 474, N-(6S)-2,4-dimethyl-5-oxo-7,8-dihydro-6H-pyrazolo[1,5-a][1,3]diazepin-6-yl-1-(tetrahydrofuran-2-ylmethyl)-1,2,4-triazole-3-carboxamide]"
3,16.4,"CN1C(=O)[C@H](NC(=O)c2ncn(Cc3ccccc3)n2)CCn2nc([C@@H]3CC3(F)F)cc21 (stereo in doubt) [Example 675, 1-benzyl-N-[rac-(6R)-4-methyl-5-oxo-2-[rac-(1S)-2,2-difluorocyclopropyl]-7,8-dihydro-6H-pyrazolo[1,5-a] [1,3]diazepin-6-yl]-1,2,4-triazole-3-carcoxamide]"
4,6,"Cc1cc2n(n1)CC[C@H](NC(=O)c1ncn(Cc3ccccc3Cl)n1)C(=O)N2C [Example 520, 1-[(2-chlorophenyl)methyl]-N-(6S)-2,4-dimethyl-5-oxo-7,8-dihydro-6H-pyrazolo[1,5-a][1,3]diazepin-6-yl-1,2,4-triazole-3-carboxamide]"
5,63,Cc1cc2n(n1)CC[C@H](NC(=O)c1ncn(Cc3ccccc3)n1)C(=O)N2 [Example 586]
6,43,"CN1C(=O)[C@H](NC(=O)c2ncn(Cc3ccccc3F)n2)CCn2ccnc21 [Example 601, 1-[(2-fluorophenyl)methyl]-N-(7R)-9-methyl-8-oxo-6,7-dihydro-5H-imidazo[1,2-a][1,3]diazepin-7-yl-1,2,4-triazole-3-carboxamide]"
7,26,"CN1C(=O)[C@H](NC(=O)c2ncn(Cc3cc(F)ccc3F)n2)CCn2cncc21 [Example 507, 1-[(2,5-difluorophenyl)methyl]-N-[(3R)-1-methyl-2-oxo-4,5-dihydro-3H-imidazo[1,5-a][1,3]diazepin-3-yl]-1,2,4-triazole-3-carboxamide]"
